# Patent US20090017139A1, “Iodine therapy dosing for treating medical conditions” (priority 2007, published 2009)
# Where two headings read alike, the source gives them in different places.
# Columns and labels:
# [1] = in drinking water, 100 days; cited from earlier work
# [2] = test system: women with mastalgia; details: cited from earlier work; for patients reporting headaches: 6 month study
# [3] = test system: iodine naive women; test: Example 3: I2 safety study, treatment emergent thyroid status in iodine naive women; assay type: in vivo, human; details: for Hyperthyroidism Overt ↓TSH ↑T4 / Hyperthyroidism Sub-clinical ↓TSH / Hypothyroidism Overt ↑TSH (5-10) ↓T4 / Hypothyroidism Overt ↑TSH (10-20) ↓T4 / Hypothyroidism Overt ↑TSH (>20) ↓T4 / Hypothyroidism Sub-clinical ↑TSH (5-10) / Hypothyroidism Sub-clinical ↑TSH (10-20) / Hypothyroidism Sub-clinical ↑TSH (>20): iodine naive, patients (percent of dose group)
# Description: A second I2 safety study was conducted in women not previously exposed to iodine therapy (iodine naïve). […] Thyroid functions laboratory values were available for 365 patients. The age of the female participants ranged from 20 to 55; the average age was 42.4 years. Variations in treatment emergent thyroid status were evaluated based on TSH and T4 values (see Table 2). […] Patients were categorized sub-clinical hypothyroid if TSH was elevated and T4 values were normal; patients with depressed T4 values were considered overtly hypothyroid.
# Sub-clinical hyperthyroidism is not correlated to an increased rate of either overt hyperthyroidism or overt hypothyroidism. On the other hand, it is well established that sub-clinical hypothyroidism is a risk factor for overt hypothyroidism. In fact, as stated in Example 2, antibodies to thyroid peroxidase combined with sub-clinical hypothyroidism are established risk factors for overt thyroid disease in women between the age of 30 and 50. Therefore the key question is whether or not dose is related to the frequency of sub-clinical hypothyroidism. Kendall's rank correlation was used to evaluate the relationship between dose and frequency of sub-clinical hypothyroidism.
# [4] = reacts with water at neutral pH; cited from earlier work
# [5] = test system: patient with follicular cyst of the ovary; test: Example 4: I2 therapy of a patient with ovarian follicular cysts; assay type: in vivo, human
# Description: The post surgical diagnosis was ruptured follicular cyst of the right ovary. After the surgical procedure the patient continued to experience lower right quadrant abdominal pain. […] The patient was started on I2 therapy at a dose of 6.0 mg/d. The patient was seen again 3 months later (December 3 to March 16). After three months of I2 therapy the patient was free of pain which their […] regarded as unique.
# The patient subsequently stopped I2 therapy and approximately 3 years later symptoms of abdominal and breast pain were present. The patient was started again on daily I2 therapy at a dose of 6.0 mg/d. An ultrasound was performed and small follicular cysts in each ovary was noted. […] The patient was continued on daily iodine therapy at a concentration of 3.0 mg/d.
# [6] = test system: female patients with fibrocystic breast condition; test: Example 2: 36 month study, treatment emergent thyroid status in iodine adapted patients; assay type: in vivo, human; details: for Hyperthyroidism Overt ↓TSH ↑T4 / Hyperthyroidism Subclinical ↓TSH / Hypothyroidism Overt ↑TSH (5-10) ↓T4 / Hypothyroidism Overt ↑TSH (10-20) ↓T4 / Hypothyroidism Overt ↑TSH (>20) ↓T4 / Hypothyroidism Subclinical ↑TSH (5-10) / Hypothyroidism Subclinical ↑TSH (10-20) / Hypothyroidism Subclinical ↑TSH (>20): iodine adapted, patients (percent of dose group)
# Description: Female patients already receiving aqueous I2 therapy for fibrocystic breast condition were enrolled in study that ran for 36 months. Patients in this study were dosed at I2 levels that ranged from 3 to 12 mg/d. A total of 923 patients were enrolled; over 700 patients remained on drug for at least 2 years. The ages of participants ranged from 17 to 78 years with an average age of 47.4 years.
# Variations in treatment emergent thyroid status were evaluated based on TSH and T4 values (see Table 1). […] Patients were categorized sub-clinical hypothyroid if TSH was elevated and T4 values were normal; patients with depressed T4 values were considered overtly hypothyroid.
# [7] = cited from earlier work
smiles,measurement,setting,value
"II [I2, molecular iodine]",suppressing thyroid uptake of a challenge dose of 125iodide,[1],less effective than iodide
same,patients reporting headaches,[2]; 1.5 mg/day group,6.3%
same,patients reporting headaches,[2]; 3.0 mg/day group,26%
same,patients reporting headaches,[2]; 6.0 mg/day group,12%
same,"change in five thyroid function tests (T3, T4, T uptake, TSH, FT3)",[2]; any treatment group,No statistically significant change
same,Hyperthyroidism Overt ↓TSH ↑T4,[3]; I2 2.0 mg/d,0 (0.0)
same,Hyperthyroidism Sub-clinical ↓TSH,[3]; I2 2.0 mg/d,2 (3.4)
same,Hypothyroidism Overt ↑TSH (5-10) ↓T4,[3]; I2 2.0 mg/d,1 (1.7)
same,Hypothyroidism Overt ↑TSH (10-20) ↓T4,[3]; I2 2.0 mg/d,0 (0.0)
same,Hypothyroidism Overt ↑TSH (>20) ↓T4,[3]; I2 2.0 mg/d,0 (0.0)
same,Hypothyroidism Sub-clinical ↑TSH (5-10),[3]; I2 2.0 mg/d,3 (5.2)
same,Hypothyroidism Sub-clinical ↑TSH (10-20),[3]; I2 2.0 mg/d,2 (3.4)
same,Hypothyroidism Sub-clinical ↑TSH (>20),[3]; I2 2.0 mg/d,0 (0.0)
same,Hyperthyroidism Overt ↓TSH ↑T4,[3]; I2 3.0 mg/d,2 (3.2)
same,Hyperthyroidism Sub-clinical ↓TSH,[3]; I2 3.0 mg/d,0 (0.0)
same,Hypothyroidism Overt ↑TSH (5-10) ↓T4,[3]; I2 3.0 mg/d,0 (0.0)
same,Hypothyroidism Overt ↑TSH (10-20) ↓T4,[3]; I2 3.0 mg/d,0 (0.0)
same,Hypothyroidism Overt ↑TSH (>20) ↓T4,[3]; I2 3.0 mg/d,0 (0.0)
same,Hypothyroidism Sub-clinical ↑TSH (5-10),[3]; I2 3.0 mg/d,5 (8.1)
same,Hypothyroidism Sub-clinical ↑TSH (10-20),[3]; I2 3.0 mg/d,0 (0.0)
same,Hypothyroidism Sub-clinical ↑TSH (>20),[3]; I2 3.0 mg/d,0 (0.0)
same,Hyperthyroidism Overt ↓TSH ↑T4,[3]; I2 6.0 mg/d,0 (0.0)
same,Hyperthyroidism Sub-clinical ↓TSH,[3]; I2 6.0 mg/d,2 (3.3)
same,Hypothyroidism Overt ↑TSH (5-10) ↓T4,[3]; I2 6.0 mg/d,0 (0.0)
same,Hypothyroidism Overt ↑TSH (10-20) ↓T4,[3]; I2 6.0 mg/d,0 (0.0)
same,Hypothyroidism Overt ↑TSH (>20) ↓T4,[3]; I2 6.0 mg/d,1 (1.7)
same,Hypothyroidism Sub-clinical ↑TSH (5-10),[3]; I2 6.0 mg/d,6 (10)
same,Hypothyroidism Sub-clinical ↑TSH (10-20),[3]; I2 6.0 mg/d,0 (0.0)
same,Hypothyroidism Sub-clinical ↑TSH (>20),[3]; I2 6.0 mg/d,0 (0.0)
same,Hyperthyroidism Overt ↓TSH ↑T4,[3]; I2 9.0 mg/d,2 (3.5)
same,Hyperthyroidism Sub-clinical ↓TSH,[3]; I2 9.0 mg/d,2 (3.5)
same,Hypothyroidism Overt ↑TSH (5-10) ↓T4,[3]; I2 9.0 mg/d,2 (3.5)
same,Hypothyroidism Overt ↑TSH (10-20) ↓T4,[3]; I2 9.0 mg/d,0 (0.0)
same,Hypothyroidism Overt ↑TSH (>20) ↓T4,[3]; I2 9.0 mg/d,1 (1.8)
same,Hypothyroidism Sub-clinical ↑TSH (5-10),[3]; I2 9.0 mg/d,8 (14)
same,Hypothyroidism Sub-clinical ↑TSH (10-20),[3]; I2 9.0 mg/d,0 (0.0)
same,Hypothyroidism Sub-clinical ↑TSH (>20),[3]; I2 9.0 mg/d,0 (0.0)
same,Hyperthyroidism Overt ↓TSH ↑T4,[3]; I2 .03 mg/d,0 (0.0)
same,Hyperthyroidism Sub-clinical ↓TSH,[3]; I2 .03 mg/d,1 (1.5)
same,Hypothyroidism Overt ↑TSH (5-10) ↓T4,[3]; I2 .03 mg/d,0 (0.0)
same,Hypothyroidism Overt ↑TSH (10-20) ↓T4,[3]; I2 .03 mg/d,0 (0.0)
same,Hypothyroidism Overt ↑TSH (>20) ↓T4,[3]; I2 .03 mg/d,0 (0.0)
same,Hypothyroidism Sub-clinical ↑TSH (5-10),[3]; I2 .03 mg/d,3 (4.6)
same,Hypothyroidism Sub-clinical ↑TSH (10-20),[3]; I2 .03 mg/d,0 (0.0)
same,Hypothyroidism Sub-clinical ↑TSH (>20),[3]; I2 .03 mg/d,0 (0.0)
same,relationship between daily dose and frequency of sub-clinical hypothyroidism,"[3]; Kendall's rank correlation p 0.0167, Cuzik's trend test p less than 0.01",correlated to the frequency of sub-clinical hypothyroidism
same,"Overt hypothyroidism, patients (second statement, compared to prevalence of overt hyperthyroidism)",[3]; iodine naive patients,1.6%
same,"incidence of abnormal thyroid function, placebo versus treatment groups","[3]; iodine naive patients, Fisher's exact test",did not differ
same,"Overt hypothyroidism, patients","[3]; iodine naive patients, first statement",1.3%
same,maximum period of storage in an aqueous environment,[4],2 to 8 h
same,symptoms on continued therapy,"[5]; 3.0 mg/d, seen 9 and 18 months later",remained asymptomatic
same,abdominal pain,"[5]; 6.0 mg/d, after three months of therapy",free of pain
same,ultrasound of the ovaries,"[5]; 6.0 mg/d, approximately 4 months later",ovaries appeared normal
same,symptoms of pain,"[5]; 6.0 mg/d, within a month of reinitiating therapy",no longer present
same,proportion of patients with sub-clinical hypothyroidism,[6]; 3 mg dose group,13%
same,rate of all sub-clinical conditions,[6]; 3 mg dose group,18.3%
same,proportion of patients with sub-clinical hypothyroidism,[6]; 6 mg dose group,16.5%
same,rate of all sub-clinical conditions,[6]; 6 mg dose group,22.2%
same,Hyperthyroidism Overt ↓TSH ↑T4,[6]; I2 3.0 mg/d,1 (0.3)
same,Hyperthyroidism Subclinical ↓TSH,[6]; I2 3.0 mg/d,16 (5.3)
same,Hypothyroidism Overt ↑TSH (5-10) ↓T4,[6]; I2 3.0 mg/d,2 (0.4)
same,Hypothyroidism Overt ↑TSH (10-20) ↓T4,[6]; I2 3.0 mg/d,0 (0.0)
same,Hypothyroidism Overt ↑TSH (>20) ↓T4,[6]; I2 3.0 mg/d,0 (0.0)
same,Hypothyroidism Subclinical ↑TSH (5-10),[6]; I2 3.0 mg/d,27 (9.0)
same,Hypothyroidism Subclinical ↑TSH (10-20),[6]; I2 3.0 mg/d,10 (3.3)
same,Hypothyroidism Subclinical ↑TSH (>20),[6]; I2 3.0 mg/d,2 (0.7)
same,Hyperthyroidism Overt ↓TSH ↑T4,[6]; I2 6.0 mg/d,1 (0.2)
same,Hyperthyroidism Subclinical ↓TSH,[6]; I2 6.0 mg/d,28 (5.7)
same,Hypothyroidism Overt ↑TSH (5-10) ↓T4,[6]; I2 6.0 mg/d,0 (0.0)
same,Hypothyroidism Overt ↑TSH (10-20) ↓T4,[6]; I2 6.0 mg/d,2 (0.4)
same,Hypothyroidism Overt ↑TSH (>20) ↓T4,[6]; I2 6.0 mg/d,2 (0.4)
same,Hypothyroidism Subclinical ↑TSH (5-10),[6]; I2 6.0 mg/d,70 (14)
same,Hypothyroidism Subclinical ↑TSH (10-20),[6]; I2 6.0 mg/d,10 (2.0)
same,Hypothyroidism Subclinical ↑TSH (>20),[6]; I2 6.0 mg/d,1 (0.2)
same,Hyperthyroidism Overt ↓TSH ↑T4,[6]; I2 9.0 mg/d,0 (0.0)
same,Hyperthyroidism Subclinical ↓TSH,[6]; I2 9.0 mg/d,0 (0.0)
same,Hypothyroidism Overt ↑TSH (5-10) ↓T4,[6]; I2 9.0 mg/d,0 (0.0)
same,Hypothyroidism Overt ↑TSH (10-20) ↓T4,[6]; I2 9.0 mg/d,0 (0.0)
same,Hypothyroidism Overt ↑TSH (>20) ↓T4,[6]; I2 9.0 mg/d,0 (0.0)
same,Hypothyroidism Subclinical ↑TSH (5-10),[6]; I2 9.0 mg/d,0 (0.0)
same,Hypothyroidism Subclinical ↑TSH (10-20),[6]; I2 9.0 mg/d,1 (6.3)
same,Hypothyroidism Subclinical ↑TSH (>20),[6]; I2 9.0 mg/d,1 (6.3)
same,Hyperthyroidism Overt ↓TSH ↑T4,[6]; I2 12.0 mg/d,0 (0.0)
same,Hyperthyroidism Subclinical ↓TSH,[6]; I2 12.0 mg/d,1 (25)
same,Hypothyroidism Overt ↑TSH (5-10) ↓T4,[6]; I2 12.0 mg/d,0 (0.0)
same,Hypothyroidism Overt ↑TSH (10-20) ↓T4,[6]; I2 12.0 mg/d,0 (0.0)
same,Hypothyroidism Overt ↑TSH (>20) ↓T4,[6]; I2 12.0 mg/d,0 (0.0)
same,Hypothyroidism Subclinical ↑TSH (5-10),[6]; I2 12.0 mg/d,0 (0.0)
same,Hypothyroidism Subclinical ↑TSH (10-20),[6]; I2 12.0 mg/d,0 (0.0)
same,Hypothyroidism Subclinical ↑TSH (>20),[6]; I2 12.0 mg/d,0 (0.0)
same,"Overt hypothyroidism, patients (second statement, compared to prevalence of overt hyperthyroidism)","[6]; all patients, 3 to 12 mg/d",0.5%
same,overall incidence of treatment emergent sub-clinical hyper- or hypothyroidism,"[6]; all patients, 3 to 12 mg/d",20.6%
same,"Overt hypothyroidism, patients","[6]; all patients, 3 to 12 mg/d, first statement",0.2%
same,iodine uptake in thyroid compared to iodide,[7]; oral administration,half as much
same,reduction of thyroidal uptake by perchlorate,"[7]; perchlorate 6 mg i.p., 2 hr predosing",40%
